Test results from patent publication US20260315653A1, “ANTICOAGULANT COMPOSITIONS COMPRISING ANTI-PLATELET AND ANTI-INFLAMMATORY DRUGS AND METHODS AND DEVICES FOR THEIR USE” (Elixir Medical Corporation, priority 2023, published 2026).
“Also recorded” adds a separate entry of the source.

How the values were obtained:
[1] = tested on: blood clotting (citrated sheep blood); assay: Activated clotting time (ACT) in citrated sheep blood (Example 2); details: single drug, 0.6 ng/mg
Protocol: The activated clotting time (ACT) evaluation of anticoagulants was performed in calcium citrate sheep blood and recorded employing the Hemochron® Response device.
The ACT measurements were made in citrated sheep blood. 1.9 ml of citrated sheep blood was added to a test tube containing an activator (Hemochron@Celite@ ACT tubes, Lot F8FTE026 from Accriva Diagnostics, Inc.). A target amount of drug solution was then added into the test tube. The test tube was gently swirled so that the blood and drug was well-mixed. 0.1 ml of 0.3M calcium chloride was then added. The tube was gently shaken before being inserted into the Hemochron Response detector. The ACT read out was recorded and reported. The ACT of the control blood in the absence of any drug as first determined to establish a baseline. Then ACT was determined in the presence of different concentrations of the drug as a single component. Selected drug combinations were then tested to evaluate for potential synergy in action between the two drugs.

[2] = tested on: blood clotting (citrated sheep blood); assay: Net activated clotting time (net ACT) in citrated sheep blood (Examples 3-5); set-up: key: seconds; measured ACT minus blood control ACT (165 s); details: single drug, blood control 165 seconds
Protocol: The activated clotting time (ACT) evaluation of anticoagulants was performed in calcium citrate sheep blood and recorded employing the Hemochron® Response device. The ACT measurements were made in citrated sheep blood. 1.9 ml of citrated sheep blood was added to a test tube containing an activator (Hemochron@Celite@ ACT tubes, Lot F8FTE026 from Accriva Diagnostics, Inc.). A target amount of drug solution was then added into the test tube. The test tube was gently swirled so that the blood and drug were well-mixed. 0.1 ml of 0.3M calcium chloride was then added. The tube was gently shaken before being inserted into the Hemochron Response detector. The ACT read out was recorded and reported. The ACT of the control blood in the absence of any drug as first determined to establish a baseline. Here the blood control measured is 165 seconds. Then ACT was determined in the presence of different concentrations of the drug as a single component. In the following study, the net ACT (measured ACT minus blood control ACT) was utilized to visualize the synergistic effect of direct factor Xa inhibitor (Rivaroxaban) and direct factor IIa inhibitor (Argatroban) drug combinations. The figures are presented in ng/mg wherein the density of blood and tissue are approximately the same.
Example 4 is the continuation of example 3, which employed the same method as in example 3. The only difference is that the direct factor Xa inhibitor Edoxaban is used in place of direct factor Xa inhibitor Rivaroxaban.
Example 5 is the continuation of example 3, which employed the same method as in example 3. The only difference is that the direct factor Xa inhibitor Betrixaban is used in place of direct factor Xa inhibitor Rivaroxaban.

[3] = tested on: blood clotting (heparinized sheep blood); assay: Net ACT initiated by platelet activation factor (PAF) and CaCl2 in heparinized sheep blood (Examples 6-11); details: single drug, 0.05 ng/mg; PAF & CaCl2; blood control 235 seconds
Protocol: In order to examine the potential synergistic effects between anti-inflammatory agents, direct factor Xa inhibitors, direct factor IIa inhibitors, antiplatelets (P2Y12 inhibitor and glycoprotein IIb/IIIa inhibitor, platelet activation factor and CaCl2 were utilized by measuring ACT. Heparinized sheep blood was used to preserve platelet function.
The activated clotting time (ACT) evaluation initiated by platelet activation factor (PAF) and calcium chloride (CaCl2) was performed in heparinized sheep blood and recorded employing the Hemochron® Response device. […] A target amount of drug solution was then added into the test tube. The test tube was gently swirled so that the blood and drug were well-mixed. […] The tube was gently shaken before being inserted into the Hemochron Response detector. The ACT read out was recorded and reported. The ACT of the control heparinized sheep blood in the absence of any drug as first measured to establish a baseline. […] Then ACT was measured in the presence of different concentrations of the drug measured. Selected drug combinations were then tested to evaluate for potential synergy in action between the drug combination. The net ACT (ACT minus blood control ACT) was utilized to visualize the synergistic effect. […] The figures are presented in ng/mg wherein the density of blood and tissue are approximately the same.

[4] = tested on: porcine coronary artery; assay: In vivo porcine coronary stent implantation: fibrin score and late lumen loss (Examples 25-26); details: for inhibition of fibrin formation compared to control: Table 10, 7 days and 28 days
Protocol: The drug eluting stent systems containing different anticoagulants prepared as described in Example 11 were evaluated at 3 hours, 6 hours, 1 day, 3 days, 6 days, 7 days, or 28 days following implantation in a porcine coronary artery model.
The porcine model was chosen as this model has been used extensively for stent and angioplasty studies resulting in a large volume of data on the vascular response properties and its correlation to human vascular response (Schwartz et al, Circulation. 2002; 106:1867 1873). The animals were housed and cared for in accordance with the Guide for the Care and Use of Laboratory Animals as established by the National Research Council.
After induction of anesthesia, the left or right femoral artery was accessed using standard techniques and an arterial sheath was introduced and advanced into the artery. Vessel angiography was performed under fluoroscopic guidance, a 7 Fr. guide catheter was inserted through the sheath and advanced to the appropriate location where intracoronary nitroglycerin was administered. An appropriate implantation segment of coronary artery was randomly selected and a 0.014″ guidewire inserted. Quantitative Coronary Angiography (QCA) was performed to document the results. The appropriately size stent was advanced to the deployment site. The balloon was inflated at a steady rate to a pressure sufficient to achieve a balloon to artery ratio of approximately 1.1 to 1.0.
Follow up angiography was performed at the designated timepoint for each of the animals. Late lumen loss (LLL) can be expressed as: […]
The LLL is an indicator of the amount smooth muscle cell (SMC) proliferation or inhibition. It is used to measure efficacy between drugs for SMC proliferation inhibition. The smaller the LLL, the better the efficacy of the drug.
Stented portions of coronary arteries were embedded in methyl methacrylate (MMA), then divided into a target of at least three blocks of approximately similar lengths for histology evaluation. Quantitative histopathological evaluation of stented artery sections was then performed and scored as indicated. For Fibrin formation, scores ranged from 0 to 3, with a score of 0 indicating absent or rare minimal spotting around struts of the stent, a score of 1 indicating the presence of fibrin in small amounts localized only around the struts, a score of 2 indicating the moderately abundant or denser presence of fibrin around and extending beyond the struts, and a score of 3 indicating the presence of abundant and dense fibrin and/or bridging of the fibrin between the struts. The mean score was calculated and reported. The mean of each section was then averaged to provide a mean fibrin score per stent. The smaller the fibrin score, the better efficacy.

[5] = In vivo drug release from / drug remaining on implanted stents (HPLC); set-up: species or system porcine; details: 7 days, n = 5
Protocol: The percentage and/or amount of each anticoagulant drug for or by each time point indicated were analyzed for each stent from the different devices in the example and the average drug tissue concentration reported.
Tissue concentrations and the amount of drug released from the stents were measured using stents implanted in porcine arteries for the drugs as indicated. The arteries at the designated time point were excised and a length of stented artery spanning from 5 mm proximal to the stented segment to 5 mm distal to the stented segment was cut. The stented artery was cut longitudinally with surgical scissors. The stents were separated from the tissue. The tissue content of each drug was analyzed using liquid chromatography mass spectroscopy (LCMS) and reported as a mean for each of the timepoint indicated. For drug remaining on each stent, each drug was extracted from the stent, measured using HPLC, and reported as a mean for each of the timepoint indicated as drug released or drug remaining on a stent (where drug remaining is equal to 100% minus the percentage of drug released).

[6] = tested on: platelets (Tissue factor generated antiplatelet); details: cited from earlier work

Cumulative Percent Release of drug: Rivaroxaban [5]	Cumulative Percent Release of drug: Rivaroxaban ([5]; listed as Rivamomaban)	Compound	ACT [1]	net ACT ([2]; 0.15 ng/mg)	net ACT ([2]; 0.3 ng/mg)	net ACT [3]	inhibition of fibrin formation compared to bare metal control stents ([4]; Table 9, day 7)	inhibition of fibrin formation compared to control [4]	inhibition of fibrin formation compared to control ([4]; listed as Rivamomaban)	IC50 [6]	IC50 for Tissue factor generated antiplatelet [6]
		COc1ccc(-n2nc(C(N)=O)c3c2C(=O)N(c2ccc(N4CCCCC4=O)cc2)CC3)cc1 [Apixaban]	522								
at least 88.9%	at least 99.7%	O=C(NC[C@H]1CN(c2ccc(N3CCOCC3=O)cc2)C(=O)O1)c1ccc(Cl)s1 [Rivaroxaban]		114	139	166 s	effective at inhibiting fibrin formation	effective at inhibiting fibrin formation compared to control at 7 days and at 28 days when it was released at a faster rate and/or at a larger dose; also recorded: not effective at inhibiting fibrin formation compared to control at 28 days when it was released at a slower rate and/or at a smaller dose; also recorded: more effective at inhibiting fibrin formation compared to control at 7 days and at 28 days; also recorded: not effective at inhibiting fibrin formation compared to control at 28 days	more effective at inhibiting fibrin formation compared to control at 7 days and at 28 days	312 nM	0.136 ng/mg
